Experimental data: patent US20190000128A1, “INFANT FORMULA COMPRISING HUMAN MILK PEPTIDES” (THE A2 MILK COMPANY LIMITED, priority 2015, published 2019)

System: neuronal stem cell (NSC) cultures / foetal stem cells
Test: Neuronal stem cell neurogenesis, differentiation and proliferation by immunocytochemistry
Assay type: cell-based
Conditions: foetal stem cells treated with 1 μM; FIG. 3B
Protocol: Previously isolated and frozen neuronal stem cell cultures were properly thawed, maintained and cultured. Cell suspensions were grown in a defined medium (DF12) composed of DMEM/F12 (1:1), 2 mM L-glutamine, 1 mM sodium pyruvate, antibiotics/antimycotics (Invitrogen, Grand Island, N.Y.), 0.6% glucose, 25 μg/ml insulin, 20 nM progesterone, 60 μM putrescine, 30 nM sodium selenite (all from Sigma, St. Louis, Mo.), 100 μg/ml human transferrin (Roche, Indianapolis, Ind.), 20 ng/ml human recombinant […] growth factor (EGF; Roche or Invitrogen, Chicago, Ill.) and basic fibroblast growth factor (bFGF; Upstate Biotechnology, Lake Placid, N.Y.). The cells grew as free-floating aggregates (neurospheres) and were passaged by mechanical dissociation every 3-4 d. […]
To identify proliferating cells, 100 μM BrdU, an analog of thymidine, was added 24 h before cell fixation. […] A primary monoclonal antibody against BrdU (1:20; Dakopatts) was added for 1 h at room temperature and detected using AlexaFluor 488-labelled goat anti-mouse IgG (H+L). […] Apoptotic cells were visualised with Hoechst 33342 (LifeTechnologies, Md.) as fragmented pycnotic blue-stained nuclei and counted under the fluorescence microscope (López-Toledano M.A. and Shelanski M.L., 2004 Neurogenic effect of beta-amyloid peptide in the development of neural stem cells. J Neurosci. 24(23):5439-44). […]

SMILES: CN1CC[C@]23c4c5ccc(O)c4O[C@H]2[C@@H](O)C=C[C@H]3[C@H]1C5 [morphine, Morphine]
- neuronal proliferation (image of magnified foetal stem cells): extensive neuronal proliferation
